For 9 molecules, GI50 and TGI results are on record in PubChem BioAssay (NCI).

Test systems include UACC-257 melanoma; SK-MEL-2 melanoma; RPMI-8226 leukemia; SK-OV-3 ovarian; NCI-H23 lung; U251 CNS; SNB-19 CNS; CCRF-CEM leukemia; LOX IMVI melanoma; HL-60(TB) leukemia.
What all share (assay): NCI anticancer screen, dose series, 48 h

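All cell lines were grown in 96-well plates and treated with compound for 48 hours. GI50 = concentration required for 50% inhibition of growth. The concentration for full growth arrest is given as TGI.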 Where only a bound is given, the exact number is not on record here.

Take `CC(C)CCC(=O)[C@@H](C)[C@H]1[C@@H](OC2OCC(O)C(O)C2NS(C)(=O)=O)C[C@H]2[C@@H]3CC=C4C[C@@H](O)CC[C@]4(C)[C@H]3CC[C@]12C` (some centres not stated): the GI50 in the assay with UACC-257 melanoma is 0.922 µM; in the assay with SK-MEL-2 melanoma, 0.739 µM; with RPMI-8226 leukemia, 0.12 µM; in the assay on SK-OV-3 ovarian, 1.27 µM; with NCI-H23 lung, 3.3 µM; in the assay with U251 CNS, 0.901 µM. The results for the GI50 in the assay on SNB-19 CNS, in the assay on CCRF-CEM leukemia and with LOX IMVI melanoma were 1.34 µM, 0.424 µM and 1.19 µM, respectively. Further, the TGI was 2.31 µM in the assay with UACC-257 melanoma; 2.27 µM with SK-MEL-2 melanoma; 0.419 µM in the assay with RPMI-8226 leukemia; 5.04 µM with SK-OV-3 ovarian; 12.7 µM with NCI-H23 lung; 7.8 µM in the assay on U251 CNS. For the same molecule, the results for the TGI in the assay on SNB-19 CNS, in the assay on CCRF-CEM leukemia and with LOX IMVI melanoma were 6.77 µM, 2.47 µM and 5.22 µM, respectively.
With `COc1ccc(CNc2cnc3cc(N)cc(N)c3n2)cc1`, the GI50 with UACC-257 melanoma is 21.4 µM; in the assay with SK-MEL-2 melanoma it was 23.9 µM; in the assay with RPMI-8226 leukemia, 23 µM; with SK-OV-3 ovarian, 82.1 µM; in the assay on NCI-H23 lung, 15.1 µM; in the assay on U251 CNS it was 17.2 µM. Moreover, the figures for the GI50 in the assay with SNB-19 CNS, in the assay with CCRF-CEM leukemia and in the assay on LOX IMVI melanoma were 52.3 µM, 24.1 µM and 17.4 µM, respectively. Further, the TGI in the assay on UACC-257 melanoma is 39.7 µM; in the assay on SK-MEL-2 melanoma it was 76.3 µM; in the assay on RPMI-8226 leukemia it was 82.3 µM; with SK-OV-3 ovarian it was greater than 100 µM; in the assay with NCI-H23 lung, 29.1 µM; in the assay on U251 CNS, 32.5 µM. Also, the values for the TGI in the assay on SNB-19 CNS, in the assay on CCRF-CEM leukemia and in the assay with LOX IMVI melanoma were greater than 100 µM, greater than 100 µM and 32 µM, respectively.
As to `Cn1nc(-c2ccccc2)c(C(=O)/C=C/c2ccc(F)cc2)c(N2CCOCC2)c1=O`, the TGI in the assay on RPMI-8226 leukemia was 23.2 µM; in the assay with SK-OV-3 ovarian, greater than 100 µM; in the assay on U251 CNS, 31.4 µM; in the assay on SNB-19 CNS, 31.8 µM; with CCRF-CEM leukemia, 49.2 µM; with LOX IMVI melanoma it was 75.4 µM. Also, the TGI in the assay with HL-60(TB) leukemia was 40.5 µM.
For the molecule `COC(=O)C(C(=O)C(=O)Nc1ccc(OC)cc1[N+](=O)[O-])c1nc2cc(C)c(C)cc2[nH]c1=O` (configuration not stated), the TGI with UACC-257 melanoma, in the assay with SK-OV-3 ovarian, in the assay with NCI-H23 lung, in the assay with U251 CNS, in the assay with SNB-19 CNS and in the assay on CCRF-CEM leukemia was greater than 100 µM each time. The TGI in the assay on LOX IMVI melanoma and with HL-60(TB) leukemia was greater than 100 µM each time.
As to `COc1cc(CC(C(=O)O)C(=O)O)c(OC)cc1CC(C(=O)O)C(=O)O`, the TGI with UACC-257 melanoma, with RPMI-8226 leukemia, in the assay on SK-OV-3 ovarian, in the assay with NCI-H23 lung, in the assay with U251 CNS and in the assay with SNB-19 CNS was greater than 100 µM each time. Besides, the TGI in the assay on CCRF-CEM leukemia, in the assay on LOX IMVI melanoma and in the assay on HL-60(TB) leukemia was greater than 100 µM throughout.
In the case of `CC(=O)C1CCC2C3CC=C4CC(SC(=N)N)CCC4(C)C3CCC12C` (configuration not stated), the GI50 with UACC-257 melanoma is 1.69 µM; in the assay on RPMI-8226 leukemia, 1.41 µM; in the assay with SK-OV-3 ovarian it was 4.19 µM; in the assay on NCI-H23 lung it was 2.02 µM; in the assay on SNB-19 CNS, 3.12 µM; in the assay on CCRF-CEM leukemia it was 1.79 µM. Besides, the GI50 in the assay on HL-60(TB) leukemia was 1.88 µM. Besides, the TGI in the assay on UACC-257 melanoma is 3.34 µM; with RPMI-8226 leukemia it was 3.33 µM; in the assay on SK-OV-3 ovarian, 18 µM; in the assay on NCI-H23 lung, 5.34 µM; with SNB-19 CNS, 32.1 µM; with CCRF-CEM leukemia it was 4.26 µM. In the assay on HL-60(TB) leukemia, this molecule yielded a TGI of 4.19 µM.
For the molecule `Cc1cc(C)nc(NS(=O)(=O)c2ccc(NC(=O)c3ccc(Cl)c4c(Nc5ccc(S(=O)(=O)N=C(N)N)cc5)c5ccccc5nc34)cc2)n1`, the TGI in the assay on UACC-257 melanoma was greater than 100 µM; in the assay with RPMI-8226 leukemia, greater than 100 µM; with SK-OV-3 ovarian, greater than 100 µM; in the assay on NCI-H23 lung it was 17.5 µM; with U251 CNS it was greater than 100 µM; in the assay on SNB-19 CNS it was greater than 100 µM. The TGI worked out at 44.4 µM with LOX IMVI melanoma and 25.1 µM in the assay on HL-60(TB) leukemia.
Take `CC1=C2[C@H](c3ccccc3)C3C=CC2(c2ccccc23)N(C(=O)C(c2ccccc2)c2ccccc2)C1=O` (some centres not stated): the TGI in the assay on UACC-257 melanoma, with SK-OV-3 ovarian, with NCI-H23 lung, in the assay with U251 CNS, with SNB-19 CNS and in the assay with CCRF-CEM leukemia was greater than 100 µM throughout. The TGI in the assay on LOX IMVI melanoma and in the assay on HL-60(TB) leukemia was greater than 100 µM throughout.
For the molecule `COC(=O)C1=C(O)[C@H](C(=O)OC)[C@]2(O)[C@@H](C(=O)OC)[C@H]1C[C@@H](c1ccc(OC(=O)/C=C/c3ccco3)cc1)[C@@H]2C(=O)OC`, the GI50 with UACC-257 melanoma was 65.5 µM; in the assay on RPMI-8226 leukemia, 0.293 µM; in the assay with U251 CNS it was 10.3 µM; in the assay with SNB-19 CNS it was 22.6 µM; in the assay on LOX IMVI melanoma, 1.59 µM; in the assay on HL-60(TB) leukemia, 13.9 µM. Also, the TGI is greater than 100 µM in the assay on UACC-257 melanoma; 57.5 µM in the assay with RPMI-8226 leukemia; 23.8 µM in the assay with U251 CNS; 87.5 µM in the assay on SNB-19 CNS; 3.17 µM with LOX IMVI melanoma; 75.1 µM in the assay on HL-60(TB) leukemia.
